Results from patent US9061981B2, “Diphenyl substituted cyclohexane derivatives, useful as modulators of the estrogen receptors beta” (Acadia Pharmaceuticals Inc., priority 2011, dated 2015).
Like-named read-outs stand apart in the source and are kept apart here.

How the values were obtained:
[1] = Microsomal bioavailability (Table 2); assay type: in vitro ADME; conditions: read-out: Microsomal bioavailability F (%)
[2] = Bioavailability after intravenous and sublingual administration in male beagle dogs; assay type: in vivo; conditions: for half-life: 10 mg/kg
Experimental: In this example, the sublingual bioavailability of Compound 8 was evaluated after intravenous and sublingual doses in male beagle dogs. The test compound was dosed at 1 and 10 mg/kg through intravenous and sublingual routes, respectively. Plasma samples were collected 10 min, 20 min, 30 min, 45 min, 1 hour, 2 hours, 4 hours, 8 hours, 12 hours and 24 hours post dose. Plasma levels were determined by LC-MS/MS analysis. A pre-study standard curve was analyzed to determine the specificity, range and lower limit of quantification of the LC-MS/MS method. The study samples were treated identically to the standards. Pharmacokinetic parameters were estimated by a non-compartmental model using WinNonlin v4.1 software.

[3] = Bioavailability after intravenous, oral and sublingual administration in rat; conditions: in vivo, rats
Experimental: Similarly to the Example above, Compound 8 was also administered to rat intravenously, orally and sublingual. Also the prodrug of Compound 8, i.e. Compound 9, was administered. The bioavailability (% F) indicated for the prodrug Compound 9 is the results of measurements of the bioavailability for Compound 8, which Compound 9 is converted into upon administration. AUC 0-4 was used for calculation of the bioavailability.

TNFα = experiment: ELISA for TNFα in PBMCs and brain homogenate after 6OHDA lesion; assay type: in vivo, rat; conditions: 6OHDA rats
Experimental: (§1) Thus, Compound 8 was assessed to determine whether ERβ agonist treatment might alter the inflammatory profile following bilateral 6OHDA lesions of the SN. ELISAs for tumor necrosis factor α (TNFα), monocyte chemotactic protein 1 (MCP-1 aka CCL2), interleukin-6 (IL-6), and interleukin-1β were conducted in peripheral blood mononuclear cells (PBMCs) and brain tissue homogenates from sham or 6OHDA treated animals. […] Both TNFα and MCP-1 were elevated in PBMCs from 6OHDA animals (data not shown). Thus, these two markers were chosen for further examination. […] Treatment with Compound 8 prevented the rise in TNFα in both brain and PBMCs (FIG. 6). MCP-1 was elevated in PBMCs following 6OHDA when blood was taken on day 7 post-surgery, but not in brain homogenates taken on day 14 (following behavioral testing). The increase in MCP-1 in PBMCs was not prevented by Compound 8 treatment, even though the behavioral profile was normal. Thus, TNFα might be a maker of an inflammatory pathway triggered by 6OHDA infusion and prevented by treatment with an ERβ agonist in a manner that also prevents motor deficits and dopamine neuron loss in the substantia nigra.

MCP-1 = experiment: ELISA for MCP-1 in PBMCs after 6OHDA lesion; assay type: in vivo, rat; conditions: 6OHDA rats, blood day 7 post-surgery
Experimental: as §1

CFA-treated animals = experiment: Complete Freund's Adjuvant (CFA) model of chronic inflammation; assay type: in vivo, Rats; conditions: 10 mg/kg sc, 24 hrs after drug administration
Experimental: Rats were treated with Complete Freund's Adjuvant (CFA). After 4 days (upon reaching stable inflammation), CFA-treated animals were treated with 10 mg/kg subcutaneously (sc) of Compound 8, incomplete Freund's Adjuvant or vehicle, respectively. Responses were measured 24 hrs after drug administration. […] Latencies, expressed in seconds (sec), were defined as the time needed for the animal to remove the treated paw from the hot surface.

[4] = test system: L5/L6 spinal nerve ligation; experiment: Spinal nerve ligation model of neuropathic pain; assay type: in vivo, male Sprague-Dawley rats; conditions: s.c.
Experimental: Spinal nerve ligation of the L5/L6 nerve was done as originally described by Kim and Chung, using male Sprague-Dawley rats. Allodynia was assessed by applying a light tactile stimulus (Von Frey hairs) to the plantar surface of the surgical paw until the 50% threshold is established. A positive response is recorded if the paw is sharply withdrawn. Eight VonFrey hairs were used (3.61, 3.84, 4.08, 4.31, 4.56, 4.74, 4.93 and 5.18).

Taxol-induced allodynia = experiment: Taxol-induced neuropathy model; assay type: in vivo, male SD rats; conditions: 2 hours post-dose
Experimental: Neuropathy was induced in male SD rats by 4×1 mg/kg consecutive daily doses of taxol as described (Naguib M, Diaz P, Xu J J, Astruc-Diaz F, Craig S, Vivas-Mejia P, Brown D L. MDA7: a novel selective agonist for CB2 receptors that prevents allodynia in rat neuropathic pain models. Br J. Pharmacol. 2008 December; 155(7):1104-16). The presence of tactile allodynia (von Frey filament 50% response threshold of <5 g) was confirmed prior to inclusion in the study. Drugs were administered sub-cutaneously (s.c.) except gabapentin was given intra-peritoneally (i.p.). Doses are given in mg/kg. * p<0.05.
Allodynia was assessed by applying a light tactile stimulus (Von Frey hairs) to the plantar surface of the surgical paw until the 50% threshold was established. A positive response was recorded if the paw was sharply withdrawn. Eight VonFrey hairs were used (3.61, 3.84, 4.08, 4.31, 4.56, 4.74, 4.93 and 5.18). MPE (%) was calculated as [(Rdrug−Rveh)/(Rsham−Rveh)]*100% where Rveh was 4 and Rsham was 13. Repeat dosing (FIG. 10C) was performed by administering the indicated doses of Compound 8 once daily via the s.c. route. Efficacy was measured 2 hours post-dose.

[5] = Brain to plasma ratio in rats; assay type: in vivo
[6] = Initial toxicity studies, in vitro and in vivo
[7] = dog intravenous 1 mg/kg vs parameters observed in rats

Oc1ccc(C2(c3ccccc3F)CCC(F)(F)CC2)cc1 [Compound 8, 4-(4,4-Difluoro-1-(2-fluorophenyl)cyclohexyl)phenol]
Microsomal bioavailability (predicted from microsomes) [1]: 4.2%
Cmax increase compared to rats [2, 7]: 2 fold
clearance decrease compared to rats [2, 7]: 2 fold
volume of distribution decrease compared to rats [2, 7]: 2 fold
half-life ([2]; male, beagle, dog, plasma, dog, sublingual 10 mg/kg, read-out: average half-life (converted)): 2.08 ± 0.5 h
half-life ([2]; male, beagle, dog, plasma, dog, sublingual, as summarised, read-out: half life (converted)): 2 h
bioavailability ([2]; male, beagle, plasma, other: sublingual, dog, sublingual 10 mg/kg vs intravenous 1 mg/kg, read-out: overall percent bioavailability following sublingual dose): 44%
clearance ([2]; male, beagle, plasma, dog, intravenous 1 mg/kg): 47 mL/min/kg
Cmax ([2]; male, beagle, plasma, dog, intravenous 1 mg/kg, read-out: average maximum concentration (Cmax)): 738 ± 199 ng/mL
Vd ([2]; male, beagle, plasma, dog, intravenous 1 mg/kg, read-out: volume of distribution): 3.5 ± 0.9 L/kg
Cmax ([2]; male, beagle, plasma, dog, sublingual 10 mg/kg, read-out: Cmax): 1060 ± 110 ng/mL
bioavailability ([3]; po, Compound 8 dosed orally, read-out: oral bioavailability): ~8%
bioavailability ([3]; Compound 8 dosed sublingually, read-out: sublingual bioavailability): 79%
6OHDA-induced increase of TNFα in PBMCs and brain (TNFα): blocked this increase
6OHDA-induced increase of MCP-1 in PBMCs (MCP-1): not prevented
edema in the treated paw (inflammation) (CFA-treated animals): inhibits hyperalgesia and inflammation
thermal hyperalgesia, 52° C. hot plate latency (CFA-treated animals): inhibits hyperalgesia
allodynia (Von Frey 50% threshold) [4]: reverses allodynia
efficacy on repeat dosing (Taxol-induced allodynia; once daily s.c.): maintained over 5 days
effect on Taxol-induced allodynia (Taxol-induced allodynia; s.c. (gabapentin i.p.), Compound 8 at 10 and 30 mg/kg): essentially complete reversal
brain to plasma ratio [5]: good brain to plasma ratio
tolerability in initial toxicity studies [6]: well tolerated
